From patent US8012944B2, “Method for treating cancer using IAP antisense oligomer and chemotherapeutic agent” (Pharmascience Inc., priority 2003, dated 2011)

system: XIAP mRNA; test: XIAP mRNA knock-down in H460 cells (real-time RT-PCR / TaqMan); type: cell-based, human; settings: not given
In short: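 NCI-H460 cells transfected with phosphorothioate antisense oligonucleotides via Lipofectamine 2000; RNA isolated after 6 h treatment. XIAP mRNA quantified by one-step TaqMan real-time RT-PCR, comparative Ct (threshold 30× baseline SD), normalized to GAPDH and expressed relative to untreated control cells.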

Substance	XIAP down-regulation H460 RNA [%]
TGTCAGTACATGTTGGCTC (antisense; chemistry not fully specified) [Code E12]	74

system: XIAP protein; test: XIAP protein knock-down in H460 cells (western blot, densitometry); type: cell-based, human; settings: not given
Procedure: FIGS. 3 and 4 are graphs showing the effects of 4×4 mixed backbone (MBO) FG8 or E12 oligonucleotides in amounts of 31 nM (FIG. 3) or 63 nM (FIG. 4). H460 lung carcinoma cells were transfected for 18 hours on one, two, or three consecutive days using 125 nM MBOs and Lipofectamine 2000. Samples for western analysis were harvested at the indicated time. Scanning densitometry was performed, and XIAP protein levels were normalized to GAPDH and compared to a mock control set to 100%. The indicated percentages express % XIAP protein knockdown versus specific scrambled controls.
One day prior to transfection, H460 cells were plated in 6- or 96-well tissue culture plates. Phosphorothioate antisense oligonucleotides were delivered into cells with Lipofectamine 2000 (Life Technologies) in the form of liposome-oligonucleotide complexes. Following a 4.5 or 6 h transfection, the transfection medium was replaced with RPMI medium containing 10% FBS, and the cells incubated for another 24 or 48 h.
The cells or tumor tissue samples were lysed with ice-cold lysis buffer (50 mM Tris, 150 mM NaCl, 2.5 mM EDTA, 0.1% SDS, 0.5% sodium deoxycholate, 1% NP-40, 0.02% sodium azide) containing protease inhibitors (Complete-Mini protease inhibitor tablets; Boehringer Mannheim GmBH, Mannheim, Germany). After incubation for 30 min on ice, samples were centrifuged at 10,000 rpm for 15 min, and stored at −20° C. Protein content in the lysed extracts was determined using a detergent-compatible Bio-Rad assay (Bio-Rad Labs, Hercules, Calif.). Equal amounts of protein (40 μg/lane) were separated on 12% SDS-polyacrylamide gels or 4-15% gradient SDS-polyacrylamide pre-made gels (Bio-Rad) and transferred to nitrocellulose membranes. Primary antibodies against XIAP, Bcl-2 (DAKO, Glostrup, Denmark), Bax (Sigma, St. Louis, Mo.), β-actin (Sigma), caspase-3 (BD PharMingen, San Diego, Calif.), and PARP (BD PharMingen) were used. The secondary antibody was the appropriate horseradish-conjugated anti-mouse or anti-rabbit IgG (Promega, Madison, Wis.). Proteins were detected by enhanced chemiluminescence (ECL; Amersham Pharmacia Biotech, Buckinghamshire, England) and visualized after exposure to Kodak autoradiography film. Scanning densitometry (Molecular Dynamics, Sunnyvale, Calif.) was performed to quantify band intensities by volume/area integration. The amount of XIAP, caspase-3, Bcl-2 and Bax in cells was normalized to their respective lane β-actin levels, upon stripping and reprobing.

Substance	effect on XIAP protein levels (in words)
mUmGmCmACCCTGGATACCmAmUmUmU (antisense NGCACCCNGGANACCANNN; 2'-O-methyl modifications, chemistry not fully specified) [FG8]	significantly reduced XIAP protein levels
TGTCAGTACATGTTGGCTC (antisense; chemistry not fully specified) [Code E12]	significantly reduced XIAP protein levels
ACCATTCTGGATACCAGAA (chemistry not fully specified) [C5 AS]	did not show sequence specific effects

system: MDA-MB-435/LCC6 human breast carcinoma xenografts; test: Systemic (i.p.) PS-oligonucleotides in LCC6 breast carcinoma xenografts; type: in vivo, female SCID-RAG2 mice; settings: 12.5 mg/kg i.p.; day 35, two weeks after the last treatment
Procedure: Initial systemic PS-oligonucleotide studies were designed without any chemotherapeutic agents. SCID-RAG2 mice were inoculated with H460 human lung carcinoma cells (s.c. shoulder injection of 10^6 cells) and treatments with G4 and F3 AS PS-oligonucleotides, as well as a scrambled control, were initiated three days after tumor inoculation. Nucleobase oligomer injections were administered i.p. at 12.5 mg/kg three times a week for three weeks. At the end of the treatment period, mean tumor sizes in the groups treated with either G4 or F3 AS oligonucleotides were ˜50% smaller than in the group treated with a scrambled control oligonucleotides (FIG. 15). The same treatment protocol was tested on female SCID-RAG2 mice inoculated orthotopically with MDA-MB-435/LCC6 human breast carcinoma cells. Two weeks after the last treatment (day 35) tumor volumes of mice treated with F3, C5 or G4 AS oligonucleotides were 70%, 60%, and 45%, respectively, smaller than vehicle controls (FIG. 16).
Efficacy experiments were conducted in male RAG2 immunodeficient mice bearing NCI-H460 tumours or female RAG2 mice bearing LCC6 tumors. Treatments were commenced on day 3 after tumor inoculation. Saline (controls), G4 AS oligonucleotides (5 or 15 mg/kg), or G4 SC oligonucleotides (5 or 15 mg/kg) were administered i.p. daily for five doses a week over a three week regimen. Vinorelbine (VNB, 5 or 10 mg/kg) was administered i.v. via the tail vein, either alone or in combination with oligonucleotides, at day 3, 7, 11 and 17 after tumor inoculation. When oligonucleotides were administered in combination with VNB, the drug treatment was performed four hours after ODN treatment.

Substance	tumor volumes smaller than vehicle controls [%]
ACCATTCTGGATACCAGAA (chemistry not fully specified) [C5 AS]	60

system: HIAP1 mRNA; test: HIAP1 mRNA in SF295 cells, basal conditions (TaqMan); type: cell-based, human; parameters: decrease of HIAP1 mRNA compared to mock or scrambled survivin control: concentration or dose not given beside the values; settings: SF295 cells (FIG. 21)
Procedure: RNA was extracted from cells lysed in RLT buffer (QIAGEN, Valencia, Calif.), and purified using QIAGEN RNeasy columns/kits. Real-time quantitative PCR was performed on a Perkin-Elmer ABI 7700 Prism PCR machine. RNA was reverse transcribed and amplified according to the TaqMan Universal PCR Master Mix protocol of PE Biosystems, using primers and probes designed to specifically recognize XIAP, HIAP1, survivin, or GAPDH. For human survivin, the forward primer was 5′-[…]-3′ (SEQ ID NO: 263), the reverse primer was 5′-GAAAGGAAAGCGCAACCG-3′ (SEQ ID NO: 264), and the probe was 5′-(FAM)[…](TAMRA)-3′ (SEQ ID NO: 265). For human HIAP1, the forward primer was 5′-[…]-3′ (SEQ ID NO: 266), the reverse primer was 5′-[…]-3′ (SEQ ID NO: 267), and the probe was 5′-(FAM)[…](TAMRA)-3′ (SEQ ID NO: 268). For human XIAP, the forward primer was 5′-[…]-3′ (SEQ ID NO: 269), the reverse primer was 5′-[…]-3′ (SEQ ID NO: 270), and the probe was 5′-(FAM)[…](TAMRA)-3′ (SEQ ID NO: 271). For human GAPDH, the forward primer was 5′-GAAGGTGAAGGTCGGAGTC-3′ (SEQ ID NO: 272), the reverse primer was 5′-GAAGATGGTGATGGGATTC-3′ (SEQ ID NO: 273), and the probe was 5′-(JOE)[…](TAMRA)-3′ (SEQ ID NO: 274). FAM is 6-carboxyfluoroscein, JOE is 6-carboxy-4,5-dichloro-2,7-dimethoxyfluoroscein, and TAMRA is 6-carboxy-N,N,N′,N′-tetramethylrhodamine. FAM and JOE are 5′ reporter dyes, while TAMRA is a 3′ quencher dye.
Relative quantification of gene expression was performed as described in the PE Biosystems manual using GAPDH as an internal standard. The comparative Ct (cycle threshold) method was used for relative quantitation of IAP mRNA levels compared to GAPDH mRNA levels. Briefly, real-time fluorescence measurements were taken at each PCR cycle and the threshold cycle (Ct) value for each sample was calculated by determining the point at which fluorescence exceeded a threshold limit of 30 times the baseline standard deviation. The average baseline value and the baseline SD are calculated starting from the third cycle baseline value and stopping at the baseline value three cycles before the signal starts to exponentially rise. The PCR primers and/or probes for the specific IAPs were designed to span at least one exon-intron boundary separated by 1 kb or more of genomic DNA, to reduce the possibility of amplifying and detecting genomic DNA contamination. The specificity of the signal, and possible contamination from DNA, were verified by treating some RNA samples with either DNase or RNase, prior to performing the reverse transcription and PCR reaction steps.
A library of 15 HIAP1 antisense nucleobase oligomers as oligonucleotides was screened for protein knock-down by western blot analysis and for RNA knock-down by TaqMan, using the primers and probes described in Example 3, above, under two different conditions. HIAP1 RNA levels may be detected using standard Northern blot analyses or RT-PCR techniques. The antisense oligonucleotides were administered to cells under basal conditions or under cycloheximide-induction conditions (24 hour treatment with sub-toxic doses). Cycloheximide (CHX) can lead to a 10- to 200-fold induction of HIAP1 mRNA depending on the cell line treated. […] This effect of CHX is via two distinct mechanisms of action. First, CHX activates NFkB, a known transcriptional inducer of HIAP1, by blocking the de novo synthesis of a labile protein, IkB, which is an inhibitor of NFkB. This effect is mimicked by puromycin, another protein synthesis inhibitor, and by TNF-alpha, which induces a signaling cascade leading to the phosphorylation, ubiquination, and degradation of IkB.
SF295 glioblastoma cells were transfected with lipofectin and oligonucleotide (scrambled survivin, no oligonucleotide, antisense APO 1 to APO 15) or left untreated. […]

Substance	HIAP1 mRNA levels (in words)
CAAGTACTCACACCTTGGA (chemistry not given here) [APO 12]	did not cause a stress-induced increase in HIAP1 mRNA
CCAGTGGTTTGCAAGCATG (chemistry not given here) [APO 7]	did not cause a stress-induced increase in HIAP1 mRNA
GGGCTCAAGTAATTCTCTT (chemistry not given here) [APO 15]	did not cause a stress-induced increase in HIAP1 mRNA
TCATTTGAGCCTGGGAGGT (chemistry not given here) [APO 1]	did not cause a stress-induced increase in HIAP1 mRNA
GAAATTTAGTGGCCAGGAA (chemistry not given here) [APO 8]	did not cause a stress-induced increase in HIAP1 mRNA

same assay, conditions: SF295 cells; six hours after transfection

Substance	decrease of HIAP1 mRNA compared to mock or scrambled survivin control [%]
CAAGTACTCACACCTTGGA (chemistry not given here) [APO 12]	~50
CCAGTGGTTTGCAAGCATG (chemistry not given here) [APO 7]	~50
GGGCTCAAGTAATTCTCTT (chemistry not given here) [APO 15]	~50
TCATTTGAGCCTGGGAGGT (chemistry not given here) [APO 1]	~50
GAAATTTAGTGGCCAGGAA (chemistry not given here) [APO 8]	~50

system: HIAP1 mRNA; test: HIAP1 mRNA in SF295 cells under cycloheximide induction (TaqMan); type: cell-based, human; settings: not given
Procedure: (§1) The effect of HIAP1 antisense nucleobase oligomers on HIAP1 protein and mRNA expression was also examined in cells induced to express HIAP1. SF295 cells were transfected with oligonucleotides, or were mock transfected. The transfected cells were then treated with 10 μg/ml cycloheximide for 24 hours to induce 70 kDa HIAP1 mRNA and protein. Protein levels were measured by western blot analysis with an anti-HIAP1 polyclonal antibody, and normalized against actin protein in a re-probing of the same blots. The densitometric scan results were plotted against the mock results (set at 100%) in FIG. 22B. […] The transfection process itself (e.g., mock or scrambled survivin) induces HIAP1 protein compared to the untreated sample as shown on the western immunoblot.
Controls for this experiment were three oligonucleotides for APO 2: one scrambled sequence (same base composition but random order, 5′-AAGGGCGGCGGAGTGAGAC-3′; SEQ ID NO: 297), one reverse polarity (same base composition, same sequential order but in the opposite direction, 5′-AGAGGACGGAGTCGGAGGC-3′; SEQ ID NO: 298), and one mismatch sequence (containing four base mismatches out of 19 bases, 5′-CGGAGCGTGAGGATGGAGA-3′; SEQ ID NO: 299).

Substance	effect on HIAP1 mRNA (and protein) under CHX induction (in words)
5′-AAGGGCGGCGGAGTGAGAC-3′ (listed as DNA, chemistry not given here) [H1 sc apo 2, reference compound]	did not change HIAP1 mRNA levels at all

system: HIAP1 protein; test: HIAP1 protein in cycloheximide-induced SF295 cells (western blot); type: cell-based, human; settings: not given
From the text: HIAP1 was detected on a western immunoblot using an affinity-purified anti-rat HIAP1 rabbit polyclonal antibody as a primary antibody and was detected by ECL (Amersham) on X-ray film with a secondary horseradish-peroxidase-conjugated anti-rabbit Ig antibody and a chemiluminescent substrate. The anti-HIAP1 polyclonal antibody is raised against a GST-fusion of the rat HIAP1. This antibody cross-reacts with both human and murine HIAP1 and HIAP2.
as §1

Substance	activity in the HIAP1 protein and mRNA assays
CAAGTACTCACACCTTGGA (chemistry not given here) [APO 12]	high activity, or had significant activity in both the protein and mRNA assays
CCAGTGGTTTGCAAGCATG (chemistry not given here) [APO 7]	high activity, or had significant activity in both the protein and mRNA assays
GGGCTCAAGTAATTCTCTT (chemistry not given here) [APO 15]	high activity, or had significant activity in both the protein and mRNA assays
TCATTTGAGCCTGGGAGGT (chemistry not given here) [APO 1]	high activity, or had significant activity in both the protein and mRNA assays
GAAATTTAGTGGCCAGGAA (chemistry not given here) [APO 8]	high activity, or had significant activity in both the protein and mRNA assays
